Experimental data reported in patent publication US9079866B2, “Flap modulators” (JANSSEN PHARMACEUTICA NV, priority 2013, dated 2015).
Counter-ions that a name gives are not always drawn. Like-named read-outs stand apart in the source and are kept apart here.

Experiments:
human FLAP = human FLAP (Homo sapiens (Human), UniProt P20292); experiment: FLAP binding assay (HTRF format); conditions: HTRF format
In short: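 Read-out is the HTRF ratio. Each reported figure averages two assay plates on which samples were tested in duplicate.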

[1] = system: leukotriene pathway in human whole blood (LTB4 levels); experiment: Human whole blood assay (A23187-stimulated LTB4); format: cell-based; conditions: Homo sapiens, read-out: LTB4 IC50 1:1
In short: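 Compounds are pre-incubated 15 min at 37° Celsius in RPMI-diluted (1:1) heparinised whole blood before a 30 min A23187 stimulus (7 μg/mL). Plasma LTB4 is read by immunoassay kit, with IC50 calculated from a 4-parameter equation.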

[2] = human FLAP wild type, average of two plates, duplicates
[3] = human whole blood diluted 1:1 in RPMI, A23187-stimulated LTB4
[4] = human whole blood diluted 1:1, A23187-stimulated

Chain of human FLAP (P20292 whole entry): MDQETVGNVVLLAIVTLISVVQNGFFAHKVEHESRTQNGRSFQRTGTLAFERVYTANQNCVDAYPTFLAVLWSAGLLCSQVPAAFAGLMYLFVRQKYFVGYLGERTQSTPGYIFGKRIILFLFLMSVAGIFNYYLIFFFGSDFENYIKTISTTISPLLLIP

With `CC1CN(S(=O)(=O)c2ccccc2-c2ccc(-c3cnc(N)cn3)c(F)c2)CC(C)N1` (racemic) [Example 62, Racemic-5-{2′-[(3,5-Dimethylpiperazin-1-yl)sulfonyl]-3-fluorobiphenyl-4-yl}pyrazin-2-amine] the Ki (human FLAP; [2]) was 142 nM and the IC50 [1, 3] was 111 nM.

With `Nc1cnc(-c2ccc(-c3ccccc3Cl)cc2F)cn1` [Example 469, 5-(2′-Chloro-3-fluorobiphenyl-4-yl)pyrazin-2-amine] the Ki (human FLAP; wild type FLAP) was 250 nM and the IC50 [1, 4] was 2350 nM.

In the case of `CC(C)(C)NS(=O)(=O)c1ccccc1-c1ccc(-c2cnc(N)cn2)c(F)c1` [Example 4, 4′-(5-Aminopyrazin-2-yl)-N-tert-butyl-3′-fluorobiphenyl-2-sulfonamide], the Ki (human FLAP; [2]) is reported as 1 nM and the IC50 [1, 3] is reported as 18 nM.

Work on `Nc1cnc(-c2ccc(-c3ccccc3S(=O)(=O)Nc3cccnc3)cc2F)cn1` [Example 31, 4′-(5-Aminopyrazin-2-yl)-3′-fluoro-N-pyridin-3-ylbiphenyl-2-sulfonamide] yielded a Ki (human FLAP; [2]) of 4 nM and an IC50 [1, 3] of 36 nM.

`CCNS(=O)(=O)c1cc(C(F)(F)F)ccc1-c1ccc(-c2cnc(N)nc2)nc1` [Example 692, 2-[6-(2-Aminopyrimidin-5-yl)pyridin-3-yl]-N-ethyl-5-(trifluoromethyl)benzenesulfonamide trifluoroacetic acid salt] was tested, and the Ki (human FLAP; wild type FLAP) was 53.3 nM and the IC50 [1, 4] was 110 nM.

For `Nc1cnc(-c2ccc(-c3ccccc3S(=O)(=O)N3C[C@H](O)[C@@H](N4CCCC4)C3)cc2F)cn1` (racemic) [Example 186, Racemic-1′-{[4′-(5-Aminopyrazin-2-yl)-3′-fluorobiphenyl-2-yl]sulfonyl}-1,3′-bipyrrolidin-4′-ol], the Ki (human FLAP; [2]) was 19 nM and the IC50 [1, 3] was 21 nM.

Work on `CC(C)(C)NS(=O)(=O)c1ccccc1-c1ccc(-c2ccc(N)nc2)c(F)c1` [Example 342, 4′-(6-Aminopyridin-3-yl)-N-(tert-butyl)-3′-fluoro-[1,1′-biphenyl]-2-sulfonamide] yielded a Ki (human FLAP; [2]) of 2 nM and an IC50 [1, 3] of 117 nM.

`Nc1cnc(-c2ccc(-c3ccccc3S(=O)(=O)N3CCC(n4cn[nH]c4=O)CC3)cc2F)cn1` [Example 129, 4-(1-{[4′-(5-Aminopyrazin-2-yl)-3′-fluorobiphenyl-2-yl]sulfonyl}piperidin-4-yl)-2,4-dihydro-3H-1,2,4-triazol-3-one] gave a Ki (human FLAP; [2]) of 4 nM and an IC50 [1, 3] of 534 nM.

Compound `Nc1cnc(-c2ccc(-c3ccccc3S(=O)(=O)c3ccccc3)cc2F)cn1` [Example 477, 5-[3-Fluoro-2′-(phenylsulfonyl)biphenyl-4-yl]pyrazin-2-amine] has a Ki (human FLAP; wild type FLAP) of 16 nM and an IC50 [1, 4] of 738 nM.

Work on `Nc1cnc(-c2ccc(-c3ccccc3Oc3ccnc(C(F)(F)F)c3)cc2F)cn1` [Example 610, 5-(3-Fluoro-2′-{[2-(trifluoromethyl)pyridin-4-yl]oxy}biphenyl-4-yl)pyrazin-2-amine] yielded a Ki (human FLAP; wild type FLAP) of 27.4 nM and an IC50 [1, 4] of 117 nM.

In the case of `Cc1cc(-c2ccccc2S(=O)(=O)NC(C)(C)C)ccc1-c1cnc(N)cn1` [Example 569, 4′-(5-Aminopyrazin-2-yl)-N-tert-butyl-3′-methylbiphenyl-2-sulfonamide], the Ki (human FLAP; wild type FLAP) is reported as 70 nM and the IC50 [1, 4] is reported as 335 nM.

For `C[Si](C)(C)CCOCSc1ccccc1-c1ccc(-c2cnc(N)nc2)c(F)c1` [Example 340, 5-[3-Fluoro-2′-({[2-(trimethylsilyl)ethoxy]methyl}sulfanyl)biphenyl-4-yl]pyrimidin-2-amine], the Ki (human FLAP; [2]) was 104 nM and the IC50 [1] was 321 nM.

`Nc1ncc(-c2ccc(-c3ccccc3S(=O)(=O)N3CC(O)C3)cc2F)cn1` [Example 265, 1-{[4′-(2-Aminopyrimidin-5-yl)-3′-fluorobiphenyl-2-yl]sulfonyl}azetidin-3-ol trifluoroacetic acid salt] showed a Ki (human FLAP; [2]) of 45 nM and an IC50 [1, 3] of 160 nM.

`Nc1cnc(-c2ccc(-c3ccccc3S(=O)(=O)N3CCC(N)CC3)cc2F)cn1` [Example 65, 5-{2′-[(4-Aminopiperidin-1-yl)sulfonyl]-3-fluorobiphenyl-4-yl}pyrazin-2-amine] gave a Ki (human FLAP; [2]) of 49 nM and an IC50 [1, 3] of 322 nM.
